# PubChem BioAssay (NCI)
#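 In this assay, cells in 96-well plates receive the compound at five concentrations for 48 hours. Endpoints are linearly interpolated between the surrounding concentrations. TGI denotes the concentration required for complete inhibition of growth.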
# What was measured:
# Test in all cases: inhibition of tumour cell growth, NCI panel, 48 h
# M14 melanoma = system: M14 melanoma
# SF-295 CNS = system: SF-295 CNS
# 786-0 renal = system: 786-0 renal
# BT-549 breast = system: BT-549 breast
# MCF7 breast = system: MCF7 breast
# HT29 colon = system: HT29 colon
# CAKI-1 renal = system: CAKI-1 renal
# NCI/ADR-RES ovarian = system: NCI/ADR-RES ovarian
# HOP-62 NSCLC = system: HOP-62 NSCLC
# RPMI-8226 leukemia = system: RPMI-8226 leukemia
# MDA-MB-435 = system: MDA-MB-435
# NCI-H522 lung = system: NCI-H522 lung
# HCC-2998 colon = system: HCC-2998 colon
# SK-MEL-28 melanoma = system: SK-MEL-28 melanoma
# SF-268 CNS = system: SF-268 CNS
# HOP-18 NSCLC = system: HOP-18 NSCLC
# LXFL 529 NSCLC = system: LXFL 529 NSCLC
# SNB-19 CNS = system: SNB-19 CNS
# DMS 273 small cell lung = system: DMS 273 small cell lung
# MOLT-4 leukemia = system: MOLT-4 leukemia
# OVCAR-4 ovarian = system: OVCAR-4 ovarian
# M19-MEL melanoma = system: M19-MEL melanoma
# U251 CNS = system: U251 CNS
# MALME-3M melanoma = system: MALME-3M melanoma
# OVCAR-3 ovarian = system: OVCAR-3 ovarian
# DMS 114 small cell lung = system: DMS 114 small cell lung
# SN12C renal = system: SN12C renal
# NCI-H23 lung = system: NCI-H23 lung
# MDA-MB-231 breast = system: MDA-MB-231 breast
# RXF 393 renal = system: RXF 393 renal
# EKVX NSCLC = system: EKVX NSCLC
# A498 renal = system: A498 renal
# OVCAR-5 ovarian = system: OVCAR-5 ovarian
# CCRF-CEM leukemia = system: CCRF-CEM leukemia
# HCT-15 colon = system: HCT-15 colon
# MDA-N = system: MDA-N
# SK-OV-3 ovarian = system: SK-OV-3 ovarian
# K-562 leukemia = system: K-562 leukemia
# PC-3 prostate = system: PC-3 prostate
# SNB-75 CNS = system: SNB-75 CNS
# SW-620 colon = system: SW-620 colon
# HL-60(TB) leukemia = system: HL-60(TB) leukemia
# A549 NSCLC = system: A549 NSCLC
# ACHN renal = system: ACHN renal
# UO-31 renal = system: UO-31 renal
# SNB-78 CNS = system: SNB-78 CNS
# SR leukemia = system: SR leukemia
# TK-10 renal = system: TK-10 renal
# OVCAR-8 ovarian = system: OVCAR-8 ovarian
# NCI-H460 lung = system: NCI-H460 lung
# RXF-631 renal = system: RXF-631 renal
# KM12 colon = system: KM12 colon
# SK-MEL-5 melanoma = system: SK-MEL-5 melanoma
# SK-MEL-2 melanoma = system: SK-MEL-2 melanoma
# UACC-257 melanoma = system: UACC-257 melanoma
# XF 498 CNS = system: XF 498 CNS
# HS 578T breast = system: HS 578T breast
# HOP-92 NSCLC = system: HOP-92 NSCLC
# NCI-H226 lung = system: NCI-H226 lung
# DU-145 prostate = system: DU-145 prostate
# HCT-116 colon = system: HCT-116 colon
# DLD-1 colon = system: DLD-1 colon
# LOX IMVI melanoma = system: LOX IMVI melanoma
# SF-539 CNS = system: SF-539 CNS
# COLO 205 colon = system: COLO 205 colon
# T-47D breast = system: T-47D breast
# KM20L2 colon = system: KM20L2 colon
# UACC-62 melanoma = system: UACC-62 melanoma
# IGROV1 ovarian = system: IGROV1 ovarian
smiles,measurement,setting,value
O=C1CCCC2=C(N1)C(=O)C=CC2=O,TGI,M14 melanoma,55.1 µM
same,TGI,SF-295 CNS,56.4 µM
same,TGI,786-0 renal,57.5 µM
same,TGI,BT-549 breast,31.1 µM
same,TGI,MCF7 breast,38.4 µM
same,TGI,HT29 colon,59 µM
same,TGI,CAKI-1 renal,49.6 µM
same,TGI,NCI/ADR-RES ovarian,> 70.5 µM
same,TGI,HOP-62 NSCLC,61.9 µM
same,TGI,RPMI-8226 leukemia,60.2 µM
same,TGI,MDA-MB-435,32.7 µM
same,TGI,NCI-H522 lung,34.8 µM
same,TGI,HCC-2998 colon,> 100 µM
same,TGI,SK-MEL-28 melanoma,60.4 µM
same,TGI,SF-268 CNS,67.9 µM
same,TGI,HOP-18 NSCLC,> 100 µM
same,TGI,LXFL 529 NSCLC,> 100 µM
same,TGI,SNB-19 CNS,61 µM
same,TGI,DMS 273 small cell lung,> 100 µM
same,TGI,MOLT-4 leukemia,31.5 µM
same,TGI,OVCAR-4 ovarian,67.6 µM
same,TGI,M19-MEL melanoma,> 100 µM
same,TGI,U251 CNS,58.8 µM
same,TGI,MALME-3M melanoma,56.6 µM
same,TGI,OVCAR-3 ovarian,64.4 µM
same,TGI,DMS 114 small cell lung,> 56.5 µM
same,TGI,SN12C renal,> 69.2 µM
same,TGI,NCI-H23 lung,56.7 µM
same,TGI,MDA-MB-231 breast,33.5 µM
same,TGI,RXF 393 renal,62.9 µM
same,TGI,EKVX NSCLC,53 µM
same,TGI,A498 renal,> 70.4 µM
same,TGI,OVCAR-5 ovarian,48.6 µM
same,TGI,CCRF-CEM leukemia,28.5 µM
same,TGI,HCT-15 colon,62.6 µM
same,TGI,MDA-N,30.9 µM
same,TGI,SK-OV-3 ovarian,> 100 µM
same,TGI,K-562 leukemia,32 µM
same,TGI,PC-3 prostate,29.9 µM
same,TGI,SNB-75 CNS,60 µM
same,TGI,SW-620 colon,37.9 µM
same,TGI,HL-60(TB) leukemia,73.5 µM
same,TGI,A549 NSCLC,> 78.5 µM
same,TGI,ACHN renal,55.1 µM
same,TGI,UO-31 renal,57.9 µM
same,TGI,SNB-78 CNS,> 100 µM
same,TGI,SR leukemia,57.8 µM
same,TGI,TK-10 renal,56.9 µM
same,TGI,OVCAR-8 ovarian,64.2 µM
same,TGI,NCI-H460 lung,63.8 µM
same,TGI,RXF-631 renal,> 100 µM
same,TGI,KM12 colon,36.7 µM
same,TGI,SK-MEL-5 melanoma,57.1 µM
same,TGI,SK-MEL-2 melanoma,60.4 µM
same,TGI,UACC-257 melanoma,61.1 µM
same,TGI,XF 498 CNS,> 100 µM
same,TGI,HS 578T breast,79.4 µM
same,TGI,HOP-92 NSCLC,38.8 µM
same,TGI,NCI-H226 lung,> 68.5 µM
same,TGI,DU-145 prostate,31.2 µM
same,TGI,HCT-116 colon,49.1 µM
same,TGI,DLD-1 colon,> 100 µM
same,TGI,LOX IMVI melanoma,> 65.8 µM
same,TGI,SF-539 CNS,59.1 µM
same,TGI,COLO 205 colon,33.3 µM
same,TGI,T-47D breast,52.7 µM
same,TGI,KM20L2 colon,> 100 µM
same,TGI,UACC-62 melanoma,56.7 µM
same,TGI,IGROV1 ovarian,57.2 µM
